Source: PubChem BioAssay AID248 (DTP/NCI, 2004)
Where “and” joins values, the source holds several entries; their conditions need not be identical. Identical values can stand only once. Toxic doses and inconclusive results are not listed. Cut-off read from the data, not from the text of the source: active = T/C of 150% or more; inactive = T/C below 125%.

System: L1210 leukemia ip in BDF1 mice, survival T/C
Test: NCI In Vivo Anticancer Drug Screen. Data for tumor model L1210 Leukemia (intraperitoneal) in B6D2F1 (BDF1) mice
Conditions: endpoint: mean survival time, higher = longer survival
Method in brief: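 Antitumor effect is assessed in tumor-bearing animals. Survival in the compound arm is compared with a vehicle-dosed control arm and expressed as their quotient.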

[1] = dose: 100.0 mg/kg/injection, schedule: Q01DX009 (ip), vehicle: Klucel (hydroxypropylcellulose) (HPC)
[2] = dose: 100.0 mg/kg/injection, schedule: Q04DX003 (ip), vehicle: Klucel (hydroxypropylcellulose) (HPC)
[3] = dose: 200.0 mg/kg/injection, schedule: Q04DX003 (ip), vehicle: Klucel (hydroxypropylcellulose) (HPC)
[4] = dose: 400.0 mg/kg/injection, schedule: Q04DX003 (ip), vehicle: Klucel (hydroxypropylcellulose) (HPC)
[5] = dose: 25.0 mg/kg/injection, schedule: Q01DX009 (ip), vehicle: saline with Tween-80
[6] = dose: 50.0 mg/kg/injection, schedule: Q01DX009 (ip), vehicle: saline with Tween-80
[7] = dose: 100.0 mg/kg/injection, schedule: Q01DX009 (ip), vehicle: saline with Tween-80
[8] = dose: 200.0 mg/kg/injection, schedule: Q01DX009 (ip), vehicle: saline with Tween-80
[9] = dose: 400.0 mg/kg/injection, schedule: Q01DX009 (ip), vehicle: saline with Tween-80
[10] = dose: 200.0 mg/kg/injection, schedule: Q01DX009 (ip), vehicle: Klucel (hydroxypropylcellulose) (HPC)
[11] = dose: 400.0 mg/kg/injection, schedule: Q01DX009 (ip), vehicle: Klucel (hydroxypropylcellulose) (HPC)
[12] = dose: 100.0 mg/kg/injection, schedule: Q04DX003 (ip), vehicle: saline with Tween-80
[13] = dose: 200.0 mg/kg/injection, schedule: Q04DX003 (ip), vehicle: saline with Tween-80
[14] = dose: 12.5 mg/kg/injection, schedule: Q01DX009 (ip), vehicle: saline with Tween-80

Measured: T/C

CSc1nc(NC(=O)CCl)cc(=O)[nH]1
inactive: dose: 25.0 mg/kg/injection, schedule: Q01DX009 (ip), vehicle: Klucel (hydroxypropylcellulose) (HPC) 93 % of control and 97 % of control and 89 % of control | [1] 97 % of control and 89 % of control | [2] 90 % of control | [3] 98 % of control | [4] 102 % of control

O=C(O)c1ccc([N+](=O)[O-])cc1OCc1ccccc1
inactive: dose: 100.0 mg/kg/injection, schedule: Q01DX001 (ip), vehicle: other 103 % of control | dose: 200.0 mg/kg/injection, schedule: Q01DX001 (ip), vehicle: other 95 % of control | dose: 400.0 mg/kg/injection, schedule: Q01DX001 (ip), vehicle: other 97 % of control

N/C(Cc1ccc(N)cc1)=N\O
inactive: [5] 97 % of control | [6] 101 % of control | [7] 95 % of control

C/C(=N\N1CCCCC1)c1ccc(NC(=O)C(Cl)Cl)cc1
inactive: [7] 106 % of control | [8] 97 % of control | [9] 89 % of control

O=C1OC(=O)c2c1cccc2[N+](=O)[O-]
inactive: [5] 97 % of control | [6] 90 % of control | [7] 94 % of control and 88 % of control

COc1ccc(OC(=O)Nc2ccccc2Cl)cc1
inactive: [1] 94 % of control | [2] 95 % of control | [10] 103 % of control | [3] 104 % of control | [11] 103 % of control | [4] 101 % of control

CCCCCCC(=O)C1C(c2ccc(N(C)C)cc2)CC(=O)C(CCCCC)C1c1ccc(N(C)C)cc1 (centres undefined)
inactive: [7] 86 % of control | [12] 89 % of control | [8] 95 % of control | [13] 90 % of control | [9] 95 % of control | dose: 400.0 mg/kg/injection, schedule: Q04DX003 (ip), vehicle: saline with Tween-80 92 % of control

O=c1cc(CBr)c2ccccc2[nH]1
inactive: dose: 5.0 mg/kg/injection, schedule: Q01DX001 (ip), vehicle: saline 100 % of control | dose: 6.25 mg/kg/injection, schedule: Q01DX009 (ip), vehicle: saline with Tween-80 105 % of control | dose: 10.0 mg/kg/injection, schedule: Q01DX001 (ip), vehicle: saline 94 % of control | [14] 90 % of control | dose: 20.0 mg/kg/injection, schedule: Q01DX001 (ip), vehicle: saline 100 % of control | dose: 40.0 mg/kg/injection, schedule: Q01DX001 (ip), vehicle: saline 103 % of control | dose: 80.0 mg/kg/injection, schedule: Q01DX001 (ip), vehicle: saline 97 % of control

CC(=O)c1cc(C)c(C)s1
inactive: [14] 107 % of control | [5] 110 % of control | [6] 100 % of control | [12] 90 % of control | [8] 86 % of control | [13] 96 % of control

O=C1C=C(N2CCCC2)CCC1
inactive: dose: 75.0 mg/kg/injection, schedule: Q01DX001 (ip), vehicle: saline 107 % of control | dose: 150.0 mg/kg/injection, schedule: Q01DX001 (ip), vehicle: saline 109 % of control

CCCN1CC(Br)C(=O)NC1=O (centres undefined)
inactive: dose: 100.0 mg/kg/injection, schedule: Q01DX Z (ip), vehicle: methylcellulose (MC) 90 % of control

CN(C)CCSCCO
inactive: dose: 100.0 mg/kg/injection, schedule: Q04DX002 (ip), vehicle: saline 107 % of control | dose: 200.0 mg/kg/injection, schedule: Q04DX002 (ip), vehicle: saline 95 % of control | dose: 400.0 mg/kg/injection, schedule: Q04DX002 (ip), vehicle: saline 107 % of control

CC1(C)COCOC1
inactive: dose: 50.0 mg/kg/injection, schedule: Q01DX009 (ip), vehicle: acetone 95 % of control | dose: 100.0 mg/kg/injection, schedule: Q01DX009 (ip), vehicle: acetone 98 % of control | dose: 200.0 mg/kg/injection, schedule: Q01DX009 (ip), vehicle: acetone 88 % of control

O=C(Nc1ccccc1)c1nccc2ccccc12
inactive: dose: 100.0 mg/kg/injection, schedule: Q01DX001 (ip), vehicle: steriod suspending solution 117 % of control | dose: 200.0 mg/kg/injection, schedule: Q01DX001 (ip), vehicle: steriod suspending solution 109 % of control | dose: 400.0 mg/kg/injection, schedule: Q01DX001 (ip), vehicle: steriod suspending solution 108 % of control

NC(N)=NC(=O)COc1ccc(Cl)cc1Cl
inactive: dose: 100.0 mg/kg/injection, schedule: Q04DX002 (ip), vehicle: saline + alcohol 100 % of control | dose: 200.0 mg/kg/injection, schedule: Q04DX002 (ip), vehicle: saline + alcohol 107 % of control

CC(=O)N(c1ccc(NC(=O)c2ccc(N3C(=O)c4ccccc4C3=O)cc2[N+](=O)[O-])cc1)c1cc[n+](C)cc1
inactive: dose: 100.0 mg/kg/injection, schedule: Q01DX001 (ip), vehicle: saline with Tween-80 93 % of control and 90 % of control | dose: 100.0 mg/kg/injection, schedule: Q04DX002 (ip), vehicle: saline with Tween-80 101 % of control and 115 % of control | dose: 200.0 mg/kg/injection, schedule: Q01DX001 (ip), vehicle: saline with Tween-80 93 % of control and 108 % of control | dose: 200.0 mg/kg/injection, schedule: Q04DX002 (ip), vehicle: saline with Tween-80 101 % of control and 113 % of control | dose: 400.0 mg/kg/injection, schedule: Q01DX001 (ip), vehicle: saline with Tween-80 107 % of control and 90 % of control | dose: 400.0 mg/kg/injection, schedule: Q04DX002 (ip), vehicle: saline with Tween-80 96 % of control and 105 % of control

CC(C1SCCCS1)C1SCCCS1
inactive: dose: 37.5 mg/kg/injection, schedule: Q04DX002 (ip), vehicle: saline with Tween-80 92 % of control | dose: 75.0 mg/kg/injection, schedule: Q04DX002 (ip), vehicle: saline with Tween-80 92 % of control | dose: 150.0 mg/kg/injection, schedule: Q04DX002 (ip), vehicle: saline with Tween-80 98 % of control | dose: 300.0 mg/kg/injection, schedule: Q04DX002 (ip), vehicle: saline with Tween-80 95 % of control

CCCCCCCCCCCCC/C=N/Nc1nnc(N/N=C/CCCCCCCCCCCCC)c2ccccc12
inactive: dose: 50.0 mg/kg/injection, schedule: Q01DX001 (ip), vehicle: saline 106 % of control | dose: 100.0 mg/kg/injection, schedule: Q01DX001 (ip), vehicle: saline 106 % of control | dose: 200.0 mg/kg/injection, schedule: Q01DX001 (ip), vehicle: saline 109 % of control | dose: 400.0 mg/kg/injection, schedule: Q01DX001 (ip), vehicle: saline 118 % of control

O=C(OCc1ccccc1)c1cc(OCc2ccccc2)ccc1OCc1ccccc1
inactive: [1] 89 % of control | [2] 93 % of control | [10] 101 % of control | [3] 95 % of control | [11] 107 % of control | [4] 98 % of control

Cc1cc(=O)c2cccc(C)c2[nH]1
inactive: [1] 95 % of control | [2] 95 % of control | [10] 90 % of control | [3] 98 % of control | [4] 98 % of control

NC(CSS(=O)(=O)O)=NCCSc1ccccc1
inactive: dose: 12.5 mg/kg/injection, schedule: Q04DX002 (ip), vehicle: Klucel (hydroxypropylcellulose) (HPC) 95 % of control | dose: 25.0 mg/kg/injection, schedule: Q04DX002 (ip), vehicle: Klucel (hydroxypropylcellulose) (HPC) 106 % of control | dose: 50.0 mg/kg/injection, schedule: Q04DX002 (ip), vehicle: Klucel (hydroxypropylcellulose) (HPC) 106 % of control
